In patent US6683114B2, “Treatment of psoriasis” (Eli Lilly and Company, priority 2000, dated 2004):
Where a name gives a salt, the structure may show the parent alone.

Tested on: plaque-like psoriasis
Assay: Treatment of a subject with moderately severe plaque-like psoriasis (case report, Example 1)
Format: in vivo, human
Details: person, plaque-like psoriasis of legs; 60 mg twice daily for 12 consecutive days
Protocol: The subject presented with moderately severe plaque-like psoriasis of their legs. The subject had suffered from psoriasis for most of their life, and the condition had worsened immediately prior to the present study. […] The subject was treated with 60 mg of tomoxetine hydrochloride, twice daily for 12 consecutive days.

CNCC[C@@H](Oc1ccccc1C)c1ccccc1 [tomoxetine hydrochloride, (R)-(−)-N-methyl-3-(2-methylphenoxy)-3-phenylpropylamine]
Clinical outcome of psoriasis lesions at final assessment: significant improvement
